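Step 1: Grow cells in 96-well plates. Step 2: Expose to compound for 48 hours at 5 concentrations. Step 3: Interpolate endpoints linearly; if unreached, use highest concentration. GI50 = concentration required for 50% inhibition of growth.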 Activity calls are given as the source filed them. No stated cut-off is given here; in the data, active = GI50 up to about 1.1 µM and inactive = higher.
What was measured:
Assay in all cases: DTP human tumour cell line panel, 48 h
HCT-116 = tested on: HCT-116
SK-OV-3 = tested on: SK-OV-3
BT-549 = tested on: BT-549
NCI-H460 = tested on: NCI-H460
OVCAR-4 = tested on: OVCAR-4
K562 = tested on: K562
CCRF-CEM = tested on: CCRF-CEM
TK-10 = tested on: TK-10
HT-29 = tested on: HT-29
NCI-H226 = tested on: NCI-H226
NCI-H23 = tested on: NCI-H23
UACC-257 = tested on: UACC-257
SF-539 = tested on: SF-539
OVCAR-8 = tested on: OVCAR-8
LOX IMVI = tested on: LOX IMVI
SK-MEL-5 = tested on: SK-MEL-5
SNB-19 = tested on: SNB-19
RPMI-8226 = tested on: RPMI-8226
RXF 393 = tested on: RXF 393

SMILES | GI50 (HCT-116) | GI50 (SK-OV-3) | GI50 (BT-549) | GI50 (NCI-H460) | GI50 (OVCAR-4) | GI50 (K562) | GI50 (CCRF-CEM) | GI50 (TK-10) | GI50 (HT-29) | GI50 (NCI-H226) | GI50 (NCI-H23) | GI50 (UACC-257) | GI50 (SF-539) | GI50 (OVCAR-8) | GI50 (LOX IMVI) | GI50 (SK-MEL-5) | GI50 (SNB-19) | GI50 (RPMI-8226) | GI50 (RXF 393)
Clc1sc(Cl)c2c1[C@H](Cl)C[C@@H]2Cl | 4.85 µM (inactive) | 54 µM (inactive) | 26.5 µM (inactive) | 49.2 µM (inactive) | 23.6 µM (inactive) | 6 µM (inactive) | 6.82 µM (inactive) | 39.5 µM (inactive) | 32.7 µM (inactive) | 19.8 µM (inactive) | 24.4 µM (inactive) | 24.3 µM (inactive) | 18.7 µM (inactive) | 18.4 µM (inactive) | 9.46 µM (inactive) | 32.4 µM (inactive) | – | – | –
COc1cccc(C2c3cc4c(cc3OC(N3CCCC3)C2C)OCO4)c1 (stereo unspecified) | 4.76 µM (inactive) | – | – | – | – | 2.69 µM (inactive) | 0.513 µM (active) | 18.6 µM (inactive) | 4.58 µM (inactive) | – | 22.8 µM (inactive) | 12.1 µM (inactive) | 8.69 µM (inactive) | 18.7 µM (inactive) | 5.71 µM (inactive) | 5.53 µM (inactive) | 11.4 µM (inactive) | 4.85 µM (inactive) | –
CC1(C)CC(=O)C2=C(C1)c1c(ccc3ccccc13)NC2c1cn(Cc2ccc(Cl)cc2)c2ccccc12 (stereo unspecified) | 9.35 µM (inactive) | > 100 µM (inactive) | 95.9 µM (inactive) | 23.9 µM (inactive) | > 100 µM (inactive) | 50.9 µM (inactive) | 55.7 µM (inactive) | 27.7 µM (inactive) | > 100 µM (inactive) | – | 80.7 µM (inactive) | 94.2 µM (inactive) | > 100 µM (inactive) | > 100 µM (inactive) | 38.7 µM (inactive) | > 100 µM (inactive) | 75 µM (inactive) | > 100 µM (inactive) | –
O=c1c2ccccc2nnn1-c1n[nH]c2ccccc12 | > 100 µM (inactive) | – | > 100 µM (inactive) | > 100 µM (inactive) | > 100 µM (inactive) | – | > 100 µM (inactive) | > 100 µM (inactive) | 63.4 µM (inactive) | – | > 100 µM (inactive) | > 100 µM (inactive) | > 100 µM (inactive) | – | – | 37.8 µM (inactive) | > 100 µM (inactive) | > 100 µM (inactive) | > 100 µM (inactive)
COc1ccc2c3c([nH]c2c1)CCN(CCCC(=O)c1ccc(F)cc1)C3 | 12.2 µM (inactive) | 19.4 µM (inactive) | – | 19.4 µM (inactive) | 16.8 µM (inactive) | 16.6 µM (inactive) | 19.8 µM (inactive) | 15.5 µM (inactive) | 4.91 µM (inactive) | 16.5 µM (inactive) | 19.4 µM (inactive) | 17.6 µM (inactive) | 9.89 µM (inactive) | 15.6 µM (inactive) | 12.7 µM (inactive) | 13.2 µM (inactive) | 14.8 µM (inactive) | 16.7 µM (inactive) | 14.2 µM (inactive)
O=C(CN1CCCC1)Nc1ccc2c(c1)C1Oc3ccccc3CC1CO2 (stereo unspecified) | 33 µM (inactive) | > 100 µM (inactive) | 19.4 µM (inactive) | – | – | 38.6 µM (inactive) | 47.2 µM (inactive) | 49 µM (inactive) | > 10 µM (inactive) | > 100 µM (inactive) | 38.5 µM (inactive) | 21.2 µM (inactive) | 18.8 µM (inactive) | 97.5 µM (inactive) | 21.4 µM (inactive) | 14.6 µM (inactive) | – | 25.1 µM (inactive) | –
Cn1c(-c2ccc[se]2)ccc1-c1ccc(C=O)[se]1 | 0.59 µM (active) | 16.6 µM (inactive) | 17.1 µM (inactive) | 0.308 µM (active) | 0.247 µM (active) | 0.323 µM (active) | 0.859 µM (active) | 0.124 µM (active) | 10.8 µM (inactive) | 0.865 µM (active) | 12.4 µM (inactive) | 0.796 µM (active) | 3.89 µM (inactive) | 6.98 µM (inactive) | 8.99 µM (inactive) | 20.7 µM (inactive) | > 100 µM (inactive) | 1.03 µM (active) | –
O=C(O)Cn1ccnc1[N+](=O)[O-] | > 100 µM (inactive) | > 100 µM (inactive) | > 100 µM (inactive) | > 100 µM (inactive) | > 100 µM (inactive) | > 100 µM (inactive) | > 100 µM (inactive) | > 100 µM (inactive) | > 100 µM (inactive) | > 100 µM (inactive) | > 100 µM (inactive) | > 100 µM (inactive) | > 100 µM (inactive) | > 100 µM (inactive) | – | > 100 µM (inactive) | > 100 µM (inactive) | > 100 µM (inactive) | > 100 µM (inactive)
CCOC(=O)c1c(NC(=S)Nc2ccc(C)cc2)sc2c1CCN(C)C2 | > 100 µM (inactive) | – | > 100 µM (inactive) | > 100 µM (inactive) | – | > 100 µM (inactive) | > 100 µM (inactive) | > 100 µM (inactive) | > 100 µM (inactive) | > 100 µM (inactive) | > 100 µM (inactive) | > 100 µM (inactive) | > 100 µM (inactive) | > 100 µM (inactive) | – | > 100 µM (inactive) | > 100 µM (inactive) | > 100 µM (inactive) | > 100 µM (inactive)
NC1=NC2=c3ccccc3=C(c3cnccn3)C2(c2cnccn2)c2ccccc21 (stereo unspecified) | 76.9 µM (inactive) | > 100 µM (inactive) | – | 58.6 µM (inactive) | 42.4 µM (inactive) | 66.5 µM (inactive) | 89.7 µM (inactive) | 87.9 µM (inactive) | 89.5 µM (inactive) | 34.7 µM (inactive) | 91.4 µM (inactive) | 37.1 µM (inactive) | 80.5 µM (inactive) | 73.3 µM (inactive) | 64.4 µM (inactive) | 34 µM (inactive) | 48.2 µM (inactive) | 58.7 µM (inactive) | > 100 µM (inactive)
CC(C)(C)C=C=C(C(C)(C)C)P(=O)(O)O | > 100 µM (inactive) | > 100 µM (inactive) | – | > 100 µM (inactive) | > 100 µM (inactive) | > 100 µM (inactive) | – | > 100 µM (inactive) | > 100 µM (inactive) | > 100 µM (inactive) | > 100 µM (inactive) | > 100 µM (inactive) | > 100 µM (inactive) | > 100 µM (inactive) | > 100 µM (inactive) | > 100 µM (inactive) | > 100 µM (inactive) | < 0.01 µM (active) | > 100 µM (inactive)
C/C(=C\CNc1ncnc2[nH]c(Cl)nc12)CO | > 100 µM (inactive) | > 100 µM (inactive) | – | > 100 µM (inactive) | > 100 µM (inactive) | > 100 µM (inactive) | > 100 µM (inactive) | > 100 µM (inactive) | > 100 µM (inactive) | > 100 µM (inactive) | > 100 µM (inactive) | > 100 µM (inactive) | > 100 µM (inactive) | > 100 µM (inactive) | > 100 µM (inactive) | > 100 µM (inactive) | > 100 µM (inactive) | > 100 µM (inactive) | > 100 µM (inactive)
Cc1cn(C2CC(N)C(CN)O2)c(=O)[nH]c1=O (stereo unspecified) | > 100 µM (inactive) | > 100 µM (inactive) | > 100 µM (inactive) | > 100 µM (inactive) | > 100 µM (inactive) | > 100 µM (inactive) | > 100 µM (inactive) | > 100 µM (inactive) | > 100 µM (inactive) | 40.6 µM (inactive) | > 100 µM (inactive) | > 100 µM (inactive) | > 100 µM (inactive) | > 100 µM (inactive) | – | > 100 µM (inactive) | > 100 µM (inactive) | > 100 µM (inactive) | > 100 µM (inactive)
CCOC(CNCCC(=O)OC)OCC | > 10 µM (inactive) | > 10 µM (inactive) | – | > 10 µM (inactive) | > 10 µM (inactive) | > 10 µM (inactive) | > 10 µM (inactive) | > 10 µM (inactive) | > 10 µM (inactive) | > 10 µM (inactive) | > 10 µM (inactive) | > 10 µM (inactive) | > 10 µM (inactive) | > 10 µM (inactive) | > 10 µM (inactive) | > 10 µM (inactive) | > 10 µM (inactive) | > 10 µM (inactive) | > 10 µM (inactive)
CN=[S+]([O-])(c1ccccc1)c1ccccc1 | > 100 µM (inactive) | > 100 µM (inactive) | – | > 100 µM (inactive) | > 100 µM (inactive) | > 100 µM (inactive) | > 100 µM (inactive) | > 100 µM (inactive) | > 100 µM (inactive) | > 100 µM (inactive) | > 100 µM (inactive) | > 100 µM (inactive) | > 100 µM (inactive) | > 100 µM (inactive) | > 100 µM (inactive) | > 100 µM (inactive) | > 100 µM (inactive) | > 100 µM (inactive) | > 100 µM (inactive)
c1csc(-c2cc(-c3ccsc3)c(-c3ccsc3)s2)c1 | > 100 µM (inactive) | > 100 µM (inactive) | > 100 µM (inactive) | > 100 µM (inactive) | > 100 µM (inactive) | > 100 µM (inactive) | > 100 µM (inactive) | > 100 µM (inactive) | > 100 µM (inactive) | > 10 µM (inactive) | > 100 µM (inactive) | > 100 µM (inactive) | > 100 µM (inactive) | > 100 µM (inactive) | – | > 100 µM (inactive) | > 100 µM (inactive) | – | > 100 µM (inactive)
NC(Cc1ccc(O)c(O)c1)P(=O)(O)O (stereo unspecified) | > 100 µM (inactive) | – | > 100 µM (inactive) | > 100 µM (inactive) | > 100 µM (inactive) | 19.6 µM (inactive) | 21.6 µM (inactive) | > 100 µM (inactive) | > 100 µM (inactive) | > 100 µM (inactive) | > 100 µM (inactive) | > 100 µM (inactive) | > 100 µM (inactive) | > 100 µM (inactive) | – | > 100 µM (inactive) | > 100 µM (inactive) | 92.7 µM (inactive) | > 100 µM (inactive)

— ChEMBL document CHEMBL1201862, “PubChem BioAssay data set” (2004)
